Patent publication US5776943A, “Rapamycin metabolites” (American Home Products Corporation, priority 1991, dated 1998)
Like-named read-outs stand apart in the source and are kept apart here.

Tested on: Human lymphocytes
Experiment: PHA-stimulated human lymphocyte proliferation (3H-thymidine incorporation)
Assay type: cell-based
Experimental: Immunosuppressive activity of the collected fractions was evaluated in an in vitro standard pharmacological test procedure designed to measure lymphocyte proliferation. The procedure used is briefly described below.
Human lymphocytes were isolated from blood anticoagulated with heparin. Blood was centrifuged with ficoll at 545 g at room temperature for 20 min. The lymphocyte layer was washed with phosphate buffered saline by centrifugation at 280 g for 10 min and subsequently with the culture medium (430 g, 10 min). The cells were adjusted to a concentration of 10^6 cells/mL with RPMI 1640 medium supplemented with 2 mM glutamine, 100 U/mL penicillin, 100 μg streptomycin and 10% fetal calf serum. For each fraction evaluated, the 1 g/L solution in methanol was diluted with culture medium to provide a concentration of 1 mg/L. The concentration of metabolite in each fraction was determined by HPLC comparison with an external rapamycin standard curve. A solution composed of 100 μL of the cell suspension, containing 5 mg/L PHA, and 100 μL of the metabolite solution were pipetted into the wells of a 96-well plate. The cells were incubated for 44 h at 37° C. in a 5% CO2 atmosphere. After addition of 1 μCi ^3 H-thymidine/well the cells were incubated for additional 4.5 h. […] The thawed cells were harvested and ^3 H-thymidine incorporation was determined by liquid scintillation counting.

`CO[C@H]1C[C@@H]2CC[C@@H](C)[C@@](O)(O2)C(=O)C(=O)N2CCCC[C@H]2C(=O)O[C@H]([C@H](C)C[C@@H]2CC[C@@H](O)[C@H](O)C2)CC(=O)[C@H](C)/C=C(\C)[C@@H](O)[C@@H](OC)C(=O)[C@H](C)C[C@H](C)/C=C/C=C/C=C/1C` [Example 1, 41-O-Desmethyl rapamycin] gave an IC50 (lymphocyte proliferation, human lymphocytes from heparin blood, PHA, incubated 44 h at 37° C., then 3H-thymidine 4.5 h, read-out: IC50) of 1 nM.

`CO[C@H]1C[C@@H]2CC[C@@H](C)[C@@](O)(O2)C(=O)C(=O)N2CCCC[C@H]2C(=O)O[C@H]([C@H](C)C[C@@H]2CC[C@@H](O)[C@H](OC)C2)CC(=O)[C@H](C)/C=C(\C)[C@@H](O)[C@@H](OC)C(=O)[C@H](C)C[C@H](C)/C=C/C=C/C=C/1C` [Rapamycin, rapamycin] gave an IC50 (Homo sapiens, Lymphocyte) of 0.1 nM.
